For assay [1], the target named is T1, human orexin type 1 receptor (hOX1R) (Homo sapiens, UniProt O43613).
T1 construct: expressed in transfected cells; host or cells: Chinese hamster ovary (CHO) cells
T1 sequence (O43613 1-425): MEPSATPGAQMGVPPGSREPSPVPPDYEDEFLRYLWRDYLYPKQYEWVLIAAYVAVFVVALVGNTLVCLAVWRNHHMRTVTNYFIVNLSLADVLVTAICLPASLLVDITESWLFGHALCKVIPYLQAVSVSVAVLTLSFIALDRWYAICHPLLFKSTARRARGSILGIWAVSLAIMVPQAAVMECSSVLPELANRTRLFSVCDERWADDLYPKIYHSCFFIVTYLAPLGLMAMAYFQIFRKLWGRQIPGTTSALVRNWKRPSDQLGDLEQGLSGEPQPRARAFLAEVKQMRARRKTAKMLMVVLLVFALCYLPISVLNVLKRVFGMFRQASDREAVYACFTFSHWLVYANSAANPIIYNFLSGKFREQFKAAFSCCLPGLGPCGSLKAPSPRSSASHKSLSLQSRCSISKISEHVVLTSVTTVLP
The experiment in a line: Orexin receptor antagonistic activity, intracellular Ca2+ fluorescence (FDSS) in CHO cells expressing hOX1R. The format is cell-based. The following applies: CHO cells forced to express hOX1R; orexin-A analogue peptide ligand 300 pM; Fluo-4 maximum fluorescence; read-out: IC50 value OX1R. The procedure:
(§1) The antagonistic activity of each test compound against human orexin type 1 receptor (hOX1R) and orexin type 2 receptor (hOX2R) was performed as described in the literature with a modification (Toshikatsu Okumura et al., Biochemical and Biophysical Research Communications 280, 976-981, 2001). Chinese hamster ovary (CHO) cells forced to express hOX1R or hOX2R were seeded at 20,000 cells/well on a 96 well Black clear bottom plates (Nunc) and cultured for 16 hours under conditions of 37° C. and 5% CO2 using a Ham's F-12 medium containing 0.1 mM MEM non-essential amino acids, 0.5 mg/ml G418, and 10% fetal bovine serum (all from Invitrogen Corp.). After removal of the medium, 100 μL of the assay buffer (25 mM HEPES (Dojindo Laboratories), Hanks' balanced salt solution (Invitrogen Corp.), 0.1% bovine serum albumin, 2.5 mM probenecid, 200 μg/ml Amaranth (all from Sigma-Aldrich Corp.), pH 7.4) containing 0.5 μM Fluo-4AM ester (Dojindo Laboratories) was added thereto, and the cells were incubated for 60 minutes under conditions of 37° C. and 5% CO2. After removal of the buffer solution for assay containing Fluo-4AM ester, the test compound was dissolved at a concentration of 10 mM in dimethyl sulfoxide and diluted with the assay buffer, and 150 μL of the diluted solution was then added to each wells, which were then incubated for 30 minutes.
(§2) A peptide (Pyr-[…]11e-Leu-Thr-Leu-NH2; Peptide Institute, Inc.) substituted 2 amino acids of human orexin-A was diluted with the assay buffer to 300 pM (final concentration for hOX1R) or 3 nM (final concentration for hOX2R). 50 μL of this ligand solution was added thereto to start reaction. During the reaction, the fluorescence value of each well was measured every one second for 3 minutes using Functional Drug Screening System (FDSS; manufactured by Hamamatsu Photonics K.K.), and antagonistic activity was determined with the maximum fluorescence value as an index for intracellular Ca^2+ concentration. The antagonistic activity of the test compound was calculated with the fluorescence value of a well supplemented with only a dilution buffer solution as 100% and the fluorescence value of a well supplemented with a buffer solution containing neither the ligand nor the compound as 0%, and determined in terms of 50% inhibitory concentration (IC50 value) from fluorescence values derived from the test compound added at varying concentrations.

The target in assay [2] is T2, orexin type 2 receptor (hOX2R) (Homo sapiens, UniProt O43614).
T2 construct: expressed in transfected cells; host or cells: Chinese hamster ovary (CHO) cells
T2 sequence (O43614 1-444): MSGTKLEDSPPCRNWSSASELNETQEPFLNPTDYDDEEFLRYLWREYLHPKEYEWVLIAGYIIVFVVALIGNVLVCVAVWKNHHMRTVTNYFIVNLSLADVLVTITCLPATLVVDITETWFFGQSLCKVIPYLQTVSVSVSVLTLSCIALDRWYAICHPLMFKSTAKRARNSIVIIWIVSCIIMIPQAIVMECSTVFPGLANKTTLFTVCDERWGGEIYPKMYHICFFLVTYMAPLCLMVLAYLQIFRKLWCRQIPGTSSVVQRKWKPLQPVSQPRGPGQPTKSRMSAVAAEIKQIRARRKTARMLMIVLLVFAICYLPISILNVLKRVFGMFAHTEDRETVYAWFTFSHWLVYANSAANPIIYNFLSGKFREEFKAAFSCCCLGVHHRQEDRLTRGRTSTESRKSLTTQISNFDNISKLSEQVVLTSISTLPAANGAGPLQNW
The experiment in a line: Orexin receptor antagonistic activity, intracellular Ca2+ fluorescence (FDSS) in CHO cells expressing hOX2R. The format is cell-based. The conditions noted are these: CHO cells forced to express hOX2R; orexin-A analogue peptide ligand 3 nM; Fluo-4 maximum fluorescence; read-out: IC50 value OX2R. Here is the method: as §1, §2

Structures are written as SMILES.

`Cc1ccc(-n2nccn2)c(C(=O)NCCn2cc(-c3ccc(F)cn3)cn2)c1` [Example 1, N-{2-[4-(5-fluoropyridin-2-yl)-1H-pyrazol-1-yl]ethyl}-5-methyl-2-(2H-1,2,3-triazol-2-yl)benzamide]: the IC50 came out at 1040 nM in assay [1] and 2390 nM in assay [2].

Consider `Cc1ccc(-n2nccn2)c(C(=O)N(C)CCn2cc(-c3ccc(F)cn3)cn2)c1` [Example 2, N-{2-[4-(5-fluoropyridin-2-yl)-1H-pyrazol-1-yl]ethyl}-N,5-dimethyl-2-(2H-1,2,3-triazol-2-yl)benzamide], for which the IC50 in assay [1] is 17.9 nM; in assay [2] it was 47.3 nM.

For the compound `Cc1ccc(-n2nccn2)c(C(=O)N(C)CCn2cc(-c3ccc(F)cc3)cn2)c1` [Example 3-2, N-{2-[4-(4-fluorophenyl)-1H-pyrazol-1-yl]ethyl}-N,5-dimethyl-2-(2H-1,2,3-triazol-2-yl)benzamide], the IC50 in assay [1] was 2.2 nM; in assay [2], 7.1 nM.

`CCN(CCn1cc(-c2ccc(F)cn2)cn1)C(=O)c1cc(C)ccc1-n1nccn1` [Example 4, N-ethyl-N-{2-[4-(5-fluoropyridin-2-yl)-1H-pyrazol-1-yl]ethyl}-5-methyl-2-(2H-1,2,3-triazol-2-yl)benzamide]: the IC50 was determined as 6 nM in assay [1] and 14.6 nM in assay [2].

With `Cc1ccc(-n2nccn2)c(C(=O)N(CCn2cc(-c3ccc(F)cn3)cn2)CC2CC2)c1` [Example 5, N-(cyclopropylmethyl)-N-{2-[4-(5-fluoropyridin-2-yl)-1H-pyrazol-1-yl]ethyl}-5-methyl-2-(2H-1,2,3-triazol-2-yl)benzamide], the IC50 was determined as 102 nM in assay [1] and 38.7 nM in assay [2].

Regarding `Cc1ccc(-n2nccn2)c(C(=O)N(CCn2cc(-c3ccc(F)cc3)cn2)CC2CC2)c1` [Example 6, N-(cyclopropylmethyl)-N-{2-[4-(4-fluorophenyl)-1H-pyrazol-1-yl]ethyl}-5-methyl-2-(2H-1,2,3-triazol-2-yl)benzamide], the figures for the IC50 in assay [1] and in assay [2] were 50.1 nM and 2.6 nM, respectively.

In the case of `CCN(CCn1cc(-c2ccc(F)cc2)cn1)C(=O)c1cc(C)ccc1-n1nccn1` [Example 7, N-ethyl-N-{2-[4-(4-fluorophenyl)-1H-pyrazol-1-yl]ethyl}-5-methyl-2-(2H-1,2,3-triazol-2-yl)benzamide], the results for the IC50 in assay [1] and in assay [2] were 2.3 nM and 6.3 nM, respectively.

For `CCN(CCn1ccc(-c2ccc(F)cc2)n1)C(=O)c1cc(C)ccc1-n1nccn1` [Example 8, N-ethyl-N-{2-[3-(4-fluorophenyl)-1H-pyrazol-1-yl]ethyl}-5-methyl-2-(2H-1,2,3-triazol-2-yl)benzamide], the IC50 is 0.9 nM in assay [1] and 2.5 nM in assay [2].

On to `CCN(CCn1ccc(-c2ccccn2)n1)C(=O)c1cc(C)ccc1-n1nccn1` [Example 9, N-ethyl-5-methyl-N-{2-[3-(pyridin-2-yl)-1H-pyrazol-1-yl]ethyl}-2-(2H-1,2,3-triazol-2-yl)benzamide], for which the results for the IC50 in assay [1] and in assay [2] were 1 nM and 4.3 nM, respectively.

`CCN(CCn1cc(-c2ccc(Cl)cn2)cn1)C(=O)c1cc(C)ccc1-n1nccn1` [Example 10, N-{2-[4-(5-chloropyridin-2-yl)-1H-pyrazol-1-yl]ethyl}-N-ethyl-5-methyl-2-(2H-1,2,3-triazol-2-yl)benzamide]: the IC50 in assay [1] is 14.4 nM; in assay [2] it was 52.6 nM.

Turning to `CCN(CCn1cc(-c2ccccn2)cn1)C(=O)c1cc(C)ccc1-n1nccn1` [Example 11, N-ethyl-5-methyl-N-{2-[4-(pyridin-2-yl)-1H-pyrazol-1-yl]ethyl}-2-(2H-1,2,3-triazol-2-yl)benzamide], the IC50 in assay [1] came out at 10.5 nM; in assay [2], 17.2 nM.

For `CCN(CCn1cc(-c2cccc(C)n2)cn1)C(=O)c1cc(C)ccc1-n1nccn1` [Example 12, N-ethyl-N-{2-[4-(6-methylpyridin-2-yl)-1H-pyrazol-1-yl]ethyl}-5-methyl-2-(2H-1,2,3-triazol-2-yl)benzamide], the IC50 was determined as 1.8 nM in assay [1] and 22.7 nM in assay [2].

As to `Cc1ccc(-n2nccn2)c(C(=O)N(CCn2cc(-c3ccc(F)cn3)cn2)C2CC2)c1` [Example 13, N-cyclopropyl-N-{2-[4-(5-fluoropyridin-2-yl)-1H-pyrazol-1-yl]ethyl}-5-methyl-2-(2H-1,2,3-triazol-2-yl)benzamide], the IC50 in assay [1] stood at 9.8 nM; in assay [2] it was 15.4 nM.

As for `Cc1ccc(-n2nccn2)c(C(=O)N(CCn2cc(-c3ccc(F)cn3)cn2)C(C)C)c1` [Example 14, N-{2-[4-(5-fluoropyridin-2-yl)-1H-pyrazol-1-yl]ethyl}-5-methyl-N-(propan-2-yl)-2-(2H-1,2,3-triazol-2-yl)benzamide], the IC50 worked out at 597 nM in assay [1] and 412 nM in assay [2].

Consider `CCN(CCn1cc(-c2ccc(F)cn2)cn1)C(=O)c1cc(C)ccc1-c1ncccn1` [Example 15, N-ethyl-N-{2-[4-(5-fluoropyridin-2-yl)-1H-pyrazol-1-yl]ethyl}-5-methyl-2-(pyrimidin-2-yl)benzamide], for which the IC50 in assay [1] came to 29.8 nM; in assay [2], 88.3 nM.

On to `Cc1ccc(-n2nccn2)c(C(=O)NCCn2ccc(-c3ccc(F)cn3)n2)c1` [Example 16, N-{2-[3-(5-fluoropyridin-2-yl)-1H-pyrazol-1-yl]ethyl}-5-methyl-2-(2H-1,2,3-triazol-2-yl)benzamide], for which the IC50 in assay [1] was determined as 115 nM; in assay [2], 598 nM.

As to `Cc1ccc(-n2nccn2)c(C(=O)N(C)CCn2ccc(-c3ccc(F)cn3)n2)c1` [Example 17, N-{2-[3-(5-fluoropyridin-2-yl)-1H-pyrazol-1-yl]ethyl}-N,5-dimethyl-2-(2H-1,2,3-triazol-2-yl)benzamide], the IC50 stood at 5.6 nM in assay [1] and 22.8 nM in assay [2].

For the compound `Cc1ccc(-n2nccn2)c(C(=O)N(CCn2ccc(-c3ccc(F)cn3)n2)CC2CC2)c1` [Example 18, N-(cyclopropylmethyl)-N-{2-[3-(5-fluoropyridin-2-yl)-1H-pyrazol-1-yl]ethyl}-5-methyl-2-(2H-1,2,3-triazol-2-yl)benzamide], the figures for the half-inhibitory concentration (IC50) in assay [1] and in assay [2] were 6.8 nM and 2.2 nM, respectively.

With `CCN(CCn1ccc(-c2ccc(F)cn2)n1)C(=O)c1cc(C)ccc1-n1nccn1` [Example 19, N-ethyl-N-{2-[3-(5-fluoropyridin-2-yl)-1H-pyrazol-1-yl]ethyl}-5-methyl-2-(2H-1,2,3-triazol-2-yl)benzamide], the IC50 in assay [1] worked out at 1.5 nM; in assay [2], 3.9 nM.

As to `Cc1ccc(-n2nccn2)c(C(=O)N(C)CCn2ccc(-c3ccc(F)cc3)n2)c1` [Example 20-2, N-{2-[3-(4-fluorophenyl)-1H-pyrazol-1-yl]ethyl}-N,5-dimethyl-2-(2H-1,2,3-triazol-2-yl)benzamide], the IC50 in assay [1] was found to be 0.9 nM; in assay [2], 8.8 nM.

Consider `Cc1ccc(-n2nccn2)c(C(=O)N(CCF)CCn2ccc(-c3ccc(F)cn3)n2)c1` [Example 21, N-{2-[3-(5-fluoropyridin-2-yl)-1H-pyrazol-1-yl]ethyl}-5-methyl-N-(2-fluoroethyl)-2-(2H-1,2,3-triazol-2-yl)benzamide], for which the results for the IC50 in assay [1] and in assay [2] were 3.7 nM and 20.3 nM, respectively.

As a reminder, the IC50 is the concentration that gives 50% inhibition.

Values taken from US20130281465A1, “PYRAZOLE DERIVATIVE” (TAISHO PHARMACEUTICAL CO., LTD., priority 2010, published 2013).
